Source: US11939588B2, “Elevated resistance to insects and plant pathogens without compromising seed production” (Board of Trustees of Michigan State University, priority 2019, dated 2024)

Columns and labels:
Assay type in all cases: in vivo, Arabidopsis thaliana
[1] = test system: WT, jazQ and jazD seedlings; assay: Apical hook formation in ethylene-elicited (ACC-treated) seedlings; details: jazD and jazQ seedlings compared with WT
Description: FIGS. 3A-3F illustrates that jazD plants are highly resistant to insect herbivores and necrotrophic pathogens. […] Data shown are the mean±SD of at least 30 larvae per genotype. Capital letters denote significant differences according to Tukey's HSD test (P<0.05). FIG. 3C is a heat map displaying the expression level of various jasmonate/ethylene-responsive genes in leaves of jazQ and jazD normalized to wild type. ACT, agmatine coumaroyl transferase (accession no. At5g61160). […] FIG. 3E graphically illustrates disease lesion size on leaves of the indicated genotypes following 5 days of treatment with B. cinerea spores for the indicated plant lines. […] Capital letters denote significant differences (Tukey's HSD test, P<0.05). FIG. 3F graphically illustrates apical hook angles of seedlings grown in the presence of various concentrations of the ethylene precursor 1-aminocyclopropane-1-carboxylic acid (ACC). Data shown are the mean±SD of at least 21 seedlings per genotype. […]
In agreement with the RNA-seq data, jazQ plants were slightly more susceptible than wild type to the necrotrophic pathogen Botrytis cinerea, whereas jazD leaves were more resistant to the spread of disease lesions (FIG. […]). To determine whether jazQ and jazD differentially affect other ethylene responses, the inventors assessed apical hook formation in ethylene-elicited seedlings.

[2] = test system: wild type Col-0 (WT), jazQ, jazD and jazU seedlings; assay: Root elongation assay with MeJA
Description: Seeds were surface sterilized with 50% (v/v) bleach for three min, washed 10 times with sterile water and stratified in dark at 4° C. for two days. Seedlings were grown on 0.7% (w/v) agar media containing half-strength Linsmaier and Skoog (LS; Caisson Labs) salts supplemented with 0.8% (w/v) sucrose and the indicated concentration of MeJA (Sigma-Aldrich). Each square Petri plate (Fisher; 100×100×15 mm) contained five seedlings per genotype. Plates were incubated vertically in a growth chamber maintained at 21° C. for eight days under 16-hour-light (80 μE m^−2s^−1)/8-hour-dark conditions. The length of primary roots was measured using ImageJ software (see website at imagej.nih.gov/ij/).

[3] = test system: WT, cdk8-1, jazD and jazD cdk8-1 seedlings; assay: Root length on medium with 5-methyl-tryptophan; details: 0 or 15 μM 5-MT, 10-day-old, partially dependent on CDK8
Description: FIG. 13A is a schematic of tryptophan biosynthesis from chorismate. Tryptophan feedback inhibits the activity of anthranilate synthase (AS). Although 5-methyl-tryptophan (5-MT) inhibits anthranilate synthase activity, it cannot be used for the production of proteins. The abbreviations used in FIG. 13A are: TRP, anthranilate phosphoribosyltransferase: PAI, phosphoribosylanthranilate isomerase; IGPS, indole-3-glycerol-phosphate synthase; TSA, tryptophan synthase alpha subunit: TSB, tryptophan synthase beta subunit. FIG. 13B graphically illustrates root length of WT, cdk8-1, jazD, and jazD cdk8-1 10-day-old seedlings grown on medium supplemented with 0 or 15 μM of 5-methyl-tryptophan (5-MT). Data shown are the mean±SD of at least 24 seedlings per genotype at each 5-MT concentration. Letters denote significant differences according to Tukey's HSD test (P<0.05).
FIG. 13B graphically illustrates root length of WT, cdk8-1, jazD, and jazD cdk8-1 10-day-old seedlings grown on medium supplemented with 0 or 15 μM of 5-methyl-tryptophan (5-MT). The data shown in FIG. 13B are the mean±SD of at least 24 seedlings per genotype at each 5-MT concentration, while the letters denote significant differences according to Tukey's HSD test (P<0.05).

[4] = test system: WT, jazQ and jazD seedlings; assay: Sucrose rescue assay (leaf biomass and root growth)
Description: The effect of exogenous sucrose on leaf biomass and root growth was determined by growing seedlings on square Petri plates (Greiner Bio-One; 120×120×17 mm). In order to control for variation in seed quality, seeds were sieved after drying with desiccant for two weeks (see above). After sterilization and washing, seeds were sown without stratification on 0.7% (w/v) agar media containing half-strength LS salts supplemented with sucrose or sorbitol. Each plate contained ten (for biomass) or five (for root growth) seeds of Col-0 and mutant lines. Plates were placed in the dark at 4° C. for four days and then incubated horizontally (for leaf biomass) or vertically (for root growth) in growth chambers maintained at 21° C. under 16 h at a light intensity of 80 μE m^−2 s^−1 and 8-hour dark. ImageJ was used to measure root length after 11 days. Plant biomass and projected leaf area were measured after 16 days.

[5] = test system: leaves of wild type, jazQ and jazD plants; assay: Coronatine treatment of intact leaves; details: 50 μM coronatine
Description: The eighth true leaf of 40-day-old plants grown under 12-hour-light/12-hour-dark conditions were spotted with 5 μL of sterile water (mock) or a solution containing 50 μM coronatine (Sigma-Aldrich, C8115) prepared in sterile water. Photographs were taken two and four days after treatment.

SMILES: NC1(C(=O)O)CC1 [ACC, 1-aminocyclopropane-1-carboxylic acid]
- stimulation of hook curvature in response to ACC [1]: reduced in jazD but not jazQ seedlings

SMILES: CC/C=C\CC1C(=O)CCC1CC(=O)OC (stereo not shown) [MeJA, methyljasmonate]
- sensitivity of jaz decuple mutant (jazD) to jasmonate ([2]; jazD seedlings, 0, 5 or 25 μM MeJA, 8-day-old): highly sensitive
- growth of roots in the presence of MeJA ([2]; jazD seedlings, 5 μM MeJA): effectively arrested
- root length in the presence of MeJA ([2]; jazU seedlings versus jazD, very low concentrations (e.g., 1 μM) of MeJA): even shorter than jazD

SMILES: Cc1ccc2[nH]cc(C[C@H](N)C(=O)O)c2c1 [5-MT, 5-methyl-tryptophan]
- resistance to 5-MT (root length) [3]: increased resistance

SMILES: OC[C@H]1O[C@@](CO)(O[C@H]2O[C@H](CO)[C@@H](O)[C@H](O)[C@H]2O)[C@@H](O)[C@@H]1O [sucrose]
- effect of exogenous sucrose on biomass ([4]; all genotypes tested (WT, jazQ, jazD), 16-day-old seedlings on agar medium): promotes increased biomass
- effect of exogenous sucrose on root growth ([4]; jazD in comparison with wild type and jazQ, 11-day-old seedlings, 23 mM sucrose): enhanced the root growth of jazD
- stimulatory effect of sucrose on growth of shoots ([4]; jazD shoots compared with wild type and jazQ): statistically greater than that of wild type and jazQ

SMILES: CC[C@H]1C=C(C(=O)N[C@@]2(C(=O)O)C[C@@H]2CC)[C@H]2CCC(=O)[C@H]2C1 [coronatine]
- sensitivity of jazD leaves to coronatine ([5]; jazD leaves, 2 or 4 days): hypersensitive
- leaf response after COR application ([5]; jazD leaves, 4 days after treatment): near complete loss of chlorophyll and spreading of necrosis-like symptoms throughout the leaf
- leaf response at the site of COR application ([5]; jazD leaves, within 2 days of treatment): visible chlorosis
- chlorosis after COR application ([5]; wild type and jazQ leaves, within 4 days): no apparent signs of chlorosis
- leaf response at the site of COR application ([5]; wild type and jazQ leaves, within 4 days of treatment): visible accumulation of anthocyanin pigments
